Test results taken from patent EP1709956A1, “Hair treatment composition comprising betains” (Henkel Kommanditgesellschaft auf Aktien, priority 2001, dated 2002).

System: humane Haarfollikel
Assay: in vitro model of isolated human scalp hair follicles (Philpott): hair shaft elongation in organ culture
Format: cell-based
Settings: 9 days in culture
Description: Auf diese Publikation wird ausdrücklich Bezug genommen. Gemäß dieser Veröffentlichung wurde wie folgt verfahren: a. Isolation humaner Kopfhauthaarfollikel Es wird okzipitale, humane Vollhaut isoliert. b. Aufreinigung der isolierten humanen Kopfhautfollikel Die herausgezupften Haarfollikel werden in ein frisches Isolationsmedium überführt, darin gesammelt und anschließend mehrfach unter sterilen Bedingungen mit frischem Medium gewaschen. Je drei Haarfollikel werden randomisiert in ein Well einer 24-Well Platte mit 500µl kompletten Mediums (verwendet wird Williams E Medium, supplementiert mit 2 mM L-Glutamin, 10 µg/ml Hydrokortison, 10 µg/ml Insulin, 10 µg/ml Penizillin und 10 µg/ml Streptomycin). Vor der Zugabe der zu testenden Substanzen wurden die Haarfollikel für 30 Minuten im Inkubator präinkubiert. c. Testung der Substanzen Es werden Carnitin, Carnitintartrat sowie Minoxidil als Vergleichssubstanz mit bekannter Wirkung geprüft. Die Prüfkonzentration für Carnitin und Carnitiontartrat beträgt jeweils 50 µmol/1. Die Haarfollikel werden für 9 Tage in Kultur gehalten. Das Medium inklusive der Testsubstanzen wird täglich gewechselt. Die Länge der jeweiligen Haarschäfte wird am 9. Tag mit Hilfe eines Meßokulares am Dissektionsmikroskop gemessen und dokumentiert. Die Prüfung von Minoxidil ist eine Positivkontrolle, weil Minoxidil in der Literatur bereits als wachstumsstimulierend für humane Haarfollikel beschrieben wird. […] Hierzu sind folgende Änderungen gegenüber der Prüfung des Carnitines und des Carnitintartrates notwendig: Testkonzentration des Minoxidil 10^-5 mol/l in 1 % Ethanol, Ersatz des Streptomycines durch 10µg/ml Ciprofloxacin. Zur statistischen Auswertung der Ergebnisse wird die Länge der Haarschäfte in % der Gesamtdurchschnittslänge aller Haarfollikel am Tage 0 berechnet. Alle Haarfollikel einer Gruppe werden gepoolt und der Mittelwert sowie die Standardabweichung statistisch nach üblichen Methoden berechnet. Signifikante Unterschiede werden mit dem Student T-Test berechnet. d.

[1] = 50 µmol/l, medium changed daily, shaft length measured on day 9, in % of mean length of all follicles on day 0

Structure (SMILES)	Längenwachstum des Haarschaftes in % [1] [%]	Längenwachstum des Haarschaftes in % (positive control, 10^-5 mol/l in 1 % Ethanol, streptomycin replaced by 10 µg/ml Ciprofloxacin, measured on day 9) [%]
C[N+](C)(C)CC(O)CC(=O)[O-] (stereo not drawn) [Carnitin]	67	–
C[N+](C)(C)CC(O)CC(=O)[O-] (stereo not drawn) [Carnitintartrat]	87	–
Nc1cc(N2CCCCC2)nc(N)[n+]1[O-] [Minoxidil, reference compound]	–	34
